Measured values as given in publication PMC9866541, “Flavonoid Derivatives as New Potent Inhibitors of Cysteine Proteases: An Important Step toward the Design of New Compounds for the Treatment of Leishmaniasis” (Microorganisms, 2023).
Where two headings read alike, the source gives them in different places.

Legend:
rCPB2.8 [1] = biological target: T1, rCPB2.8 (Leishmania mexicana, UniProt P36400); assay: Screening of inhibitory activity on rCPB2.8 (Z-FR-MCA hydrolysis); type: biochemical; settings: for inhibition at 1 µM / inhibition at 5 µM: read-out: Inhibition of rCPB2.8 enzymatic activity
T1 construct: recombinant enzymes (r) lacking the C-terminal region
T1 sequence (P36400 126-343): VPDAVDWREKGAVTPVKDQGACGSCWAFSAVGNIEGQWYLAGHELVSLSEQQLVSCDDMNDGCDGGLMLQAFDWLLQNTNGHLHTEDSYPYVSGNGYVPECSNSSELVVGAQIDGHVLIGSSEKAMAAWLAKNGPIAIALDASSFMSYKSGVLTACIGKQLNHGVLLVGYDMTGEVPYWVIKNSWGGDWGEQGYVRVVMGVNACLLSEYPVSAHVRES
Description: The screening assays for the inhibitory activity of the compounds in the rCPB2.8, rCPB3, and rH84Y enzymes were performed using 100 mM sodium acetate buffer containing 5 mM EDTA, 100 mM NaCl, 0.01% Triton X-100, and 20% glycerol, at pH 5.5. Enzyme aliquots were pre-incubated with 5 mM DTT for 5 min at 37 °C. After checking the initial rate of the reaction corresponding to the control, the enzymatic rate was measured at two concentrations of compounds, 1 µM and 5 µM. Enzyme activity was monitored by hydrolysis of the substrate Z-FR-MCA by measuring the fluorescence at λEx = 360 nm and λEm = 480 nm on a Hitachi F2700 spectrofluorometer, obtaining the rate values in UAF/min (arbitrary fluorescence units by minute).

rCPB2.8 [2] = biological target: T1, rCPB2.8; assay: Determination of IC50 on rCPB2.8 (Z-FR-AMC); type: biochemical
Description: Cysteine proteases rCPB2.8, rCPB3, and rH84Y were assayed in 100 mM sodium acetate buffer containing 5 mM EDTA, 100 mM NaCl, 0.01% Triton X-100, and 20% glycerol, at pH 5.5. The enzymes were pre-incubated in the presence of 5 mM DTT for 5 min at 37 °C in a 1 mL final volume with constant stirring. Enzyme activities were monitored using fluorogenic probe Z-FR-AMC (9.25 µM final concentration), and the fluorescence was monitored by spectrofluorometry using fluorometer F2700 (Hitachi, Tokyo, Japan) set to λEx = 360 nm and λEm = 480 nm. The IC50 evaluation was performed using a progressive increase in the concentration of the compounds; the IC50 values were calculated using nonlinear regression, and the data were analysed by Grafit 5.0.13 software using Equation (1). (1) y=100%/1+(x/IC50)^S.

rCPB2.8 [3] = biological target: T1, rCPB2.8; assay: Enzyme kinetics and mechanism of inhibition of rCPB2.8; type: biochemical; for mechanism: key: NCPC: non-competitive inhibition with positive cooperativity; SLNC: simple linear non-competitive inhibition
Description: (§1) Studies of cysteine proteases rCPB2.8, rCPB3, and rH84Y inhibition kinetics were performed in different concentrations of Z-FR-AMC in the presence and absence of compounds using 100 mM sodium acetate buffer containing 5 mM EDTA, 100 mM NaCl, 0.01% Triton X-100, and 20% glycerol, at pH 5.5. Aliquots of the enzymes were pre-incubated with 5 mM DTT for 5 min at 37 °C. For every kinetic measurement, the compounds were pre-incubated with each enzyme for 10 min before adding the substrate. All kinetic assays were performed in duplicate. Inhibition constants were determined using different equations, depending on the inhibition mechanism. The assumed KM values of rCPB2.8, rCPB3, and rH84Y for Z-FR-AMC were 3.23 µM, 2.99 µM, and 2.80 µM, respectively. The data of the activity rate and substrate concentration generated rectangular hyperbolic profiles that were linearised using the Lineweaver–Burk double-reciprocal plot. The replot profiles of the slope vs. inhibitor and intercept vs. inhibitor provided Ki and αKi parameters, respectively. If the replots present a parabolic profile, the system involves the participation of a second molecule of the compound, which can bind the enzyme complexed to the first compound (EI), forming IEI, and bind to the ESI complex, forming IESI. Linearisation is required, generating the 1/Kslope vs. inhibitor and 1/Kintercept vs. inhibitor replots, according to Equations (2) and (3). (2) 1/Kslope=1/Ki+[I]/βKi2, (3) 1/Kintercept=1/αKi+[I]/αγKi2, where Ki is the inhibitory constant, [I] is the concentration of inhibitor, α is the factor of formation of the ESI complex (enzyme–substrate–inhibitor complex), β is the factor of formation of the IEI complex (inhibitor–enzyme–inhibitor complex), and γ is the factor of formation of the IESI complex (inhibitor–enzyme–substrate–inhibitor complex) according to the general mechanism (Figure 8). Furthermore, β and γ measure the cooperativity between the binding of the first and second inhibitor molecules to form IEI and IESI, respectively.

rCPB3 = rCPB3 (Leishmania mexicana, UniProt P36400, D186N/D189S/N185D, form not given); assay: Enzyme kinetics and mechanism of inhibition of rCPB3; type: biochemical; for mechanism: key: NCPC: non-competitive inhibition with positive cooperativity; SLNC: simple linear non-competitive inhibition
rCPB3, sequence (P36400 126-343 D186N/D189S/N185D): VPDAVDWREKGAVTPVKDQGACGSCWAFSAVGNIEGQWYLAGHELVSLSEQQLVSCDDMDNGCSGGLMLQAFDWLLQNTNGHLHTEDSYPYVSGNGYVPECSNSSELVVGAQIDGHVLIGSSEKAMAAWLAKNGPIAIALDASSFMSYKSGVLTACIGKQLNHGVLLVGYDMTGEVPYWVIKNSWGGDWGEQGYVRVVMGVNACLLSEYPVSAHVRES
Description: as §1

rH84Y [4] = biological target: rH84Y (Leishmania mexicana, UniProt P36400, D186N/D189S/H209Y/N185D, form not given); assay: Enzyme kinetics and mechanism of inhibition of rH84Y; type: biochemical; for mechanism: key: NCPC: non-competitive inhibition with positive cooperativity; SLNC: simple linear non-competitive inhibition
rH84Y (Leishmania mexicana, UniProt P36400, D186N/D189S/H209Y/N185D, form not given), sequence (P36400 126-343 D186N/D189S/H209Y/N185D): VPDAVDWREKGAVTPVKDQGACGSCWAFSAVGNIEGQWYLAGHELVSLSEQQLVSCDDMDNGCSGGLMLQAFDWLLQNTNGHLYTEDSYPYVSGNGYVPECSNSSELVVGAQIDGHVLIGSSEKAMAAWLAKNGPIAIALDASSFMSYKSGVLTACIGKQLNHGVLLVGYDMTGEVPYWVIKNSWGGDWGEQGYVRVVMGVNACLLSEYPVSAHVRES
Description: as §1

[5] = system: Promastigote forms of L. amazonensis; assay: Antipromastigote assay (MTT); type: cell-based, Leishmania amazonensis; settings: for IC50: Leishmania amazonensis, 72 h, read-out: Promastigote IC50; for SI (selectivity index): GL50 in NIH/3T3 cells / IC50 in extracellular promastigotes
Description: A standard strain of Leishmania (Leishmania amazonensis) (IFLA/BR/1967/PH8) was used for the evaluation of in vitro antileishmanial activity. The promastigote forms were grown in Schneider’s insect medium (Sigma-Aldrich®, SP/Brazil) supplemented with 20% foetal bovine serum (Sigma-Aldrich®, SP/Brazil), 10,000 U/mL penicillin, and 10 mg/mL streptomycin (Sigma-Aldrich®, SP/Brazil).
Promastigote forms of L. amazonensis in the log growth phase (10^e6 parasites/mL) were added to 96-well plates and incubated in sextuplicate with the test samples (0.25–10.0 µg/mL). The microplates were incubated at 26 °C for 72 h. Cell viability was assessed by adding 5 mg/mL of MTT ([3-(4,5-dimethylthiazol-2-yl)-2,5-diphenyltetrazolium bromide] (Sigma-Aldrich® SP/Brazil). Results were expressed as the half-maximal inhibitory concentration (IC50) calculated by a nonlinear dose–response regression curve using the statistical program GraphPad PRISM 5.0. Pentamidine (Sigma-Aldrich ® SP/Brazil; 0.25–10 µg/mL) was used as a positive control, and pure Schneider culture medium was used as a negative control.

NIH/3T3 fibroblasts = assay: Cytotoxicity on mammalian cells (sulphorhodamine B); type: cell-based; settings: for NIH/3T3 Cells GL50: 48 h, concentration that inhibited cell growth by 50%
Description: The cytotoxic effect of the test samples was evaluated on NIH/3T3 fibroblasts, obtained from the Rio de Janeiro Cell Bank (Brazil). Cells were seeded in 96-well plates ([…]). After 24 h of fixation, cells were incubated for 48 h with test samples at 0.25–250 µg/mL, in triplicate. […] Doxorubicin (0.025–25 µg/mL was used as a positive control. Cells were fixed by adding 20% trichloroacetic acid and were subsequently stained with sulphorhodamine B (0.1%) diluted in acetic acid after 48 h of exposure. Absorbance values were read on the PT-READER microplate instrument (Thermoplate®), and growth percentages were calculated according to procedures in the literature. Cytotoxicity activity was expressed as the concentration of drug that inhibited cell growth by 50% (GL50), and growth was determined by nonlinear regression using Origin 6.0 software (OriginLab). The statistical significance was analysed using an unpaired Student’s t-test or a one-way analysis of variance. A p-value < 0.05 was considered statistically relevant. In addition, the SI was calculated using the ratio between cytotoxicity in NHI-3T3 cells (GL50) and activity in the parasite forms (IC50).

rH84Y [6] = type: biochemical, Leishmania mexicana; settings: ratio of IC50 values
[7] = factor of formation of the ESI complex
[8] = L. amazonensis promastigotes, 26 °C, MTT, highest concentration tested 10 µg/mL

SMILES | inhibition at 1 µM (rCPB2.8 [1]) | inhibition at 5 µM (rCPB2.8 [1]) | IC50 (rCPB2.8 [2]) | IC50 [5, 8] | NIH/3T3 Cells GL50 (NIH/3T3 fibroblasts) | SI (selectivity index) [5] | IC50 [5] | other results
O=c1c(O)c(-c2ccc3c(c2)OCO3)oc2ccccc12 [Compound f12b, 2-(benzo[d][1, 3]dioxol-5-yl)-3-hydroxy-4H-chromen-4-one] | 69.2% | 77.5% | 5.23 ± 0.32 µM | > 10 µg/mL | >885.74 µM |  |  | Mechanism (rCPB2.8 [3]): NCPC; αKi (rCPB2.8 [3]): 24.9 ± 2.3 µM; Ki (rCPB2.8 [3]; Ki): 39200 ± 4100 nM; α (rCPB2.8 [3]; [7]): 0.634; β (rCPB2.8 [3]; factor of formation of the IEI complex): 0.029; γ (rCPB2.8 [3]; factor of formation of the IESI complex): 0.013; Ki (rCPB2.8 [3]; βKi): 1170 ± 120 nM; Ki (rCPB2.8 [3]; γKi): 510 ± 90 nM; Mechanism (rCPB3): SLNC; αKi (rCPB3): 13.7 ± 1.2 µM; α (rCPB3; [7]): 1; Mechanism (rH84Y [4]): SLNC; αKi (rH84Y [4]): 6.06 ± 0.24 µM; α (rH84Y [4]; [7]): 1
CN(C)c1ccc(/C=C/C(=O)c2ccc(Cl)cc2)cc1 [Compound 1c, (E)-1-(4-chlorophenyl)-3-(4-(dimethylamino)phenyl)prop-2-en-1-one] |  | 91.6% | 2.75 ± 0.18 µM | 1140 nM | >874.83 µM | >767.39 |  | 
CN(C)c1ccc(/C=C/C(=O)c2cc(F)ccc2O)cc1 [Compound 4c, (E)-3-(4-(dimethylamino)phenyl)-1-(5-fluoro-2-hydroxyphenyl)prop-2-en-1-one] |  |  | 9.88 ± 0.73 µM | 500 nM | >876.24 µM | >1752.48 |  | Times more potent in inhibiting rH84Y compared to rCPB3 (rH84Y [6]): 8.74 times; Cytotoxicity against mammal cells (in words) (NIH/3T3 fibroblasts; NIH/3T3 cells): noncytotoxic
COc1ccc(/C=C/C(=O)c2ccc(Cl)cc2)cc1 [Compound 1a, (E)-1-(4-chlorophenyl)-3-(4-methoxyphenyl)prop-2-en-1-one] | 82% |  | 13.7 ± 0.74 µM |  | 294.13 µM |  | > 10 µg/mL | 
CN(C)c1ccc(/C=C/C(=O)c2ccccc2O)cc1 [Compound 2c, (E)-3-(4-(dimethylamino)phenyl)-1-(2-hydroxyphenyl)prop-2-en-1-one] |  | 25.6% | 11.7 ± 0.38 µM |  | >935.21 µM |  | > 10 µg/mL | rCPB2.8 activity (increased to) (rCPB2.8 [1]; 1 µM compound, activity relative to control): 141.71%
